Results published in patent US20250051347A1, “BIFUNCTIONAL CHIMERIC HETEROCYCLIC COMPOUND AND USE THEREOF AS ANDROGEN RECEPTOR DEGRADER” (Hinova Pharmaceuticals, Inc., priority 2021, published 2025).
Read-outs that look alike come from different tables or passages of the source.

Legend:
[1] = target: T1, androgen receptor (AR) splicing variant AR-v7 (Homo sapiens, UniProt P10275); test: Degradation activity on androgen receptor splicing variant AR-v7 in 22RV1 cells (ELISA); assay type: cell-based; conditions: AR-v7 degradation in 22RV1 cells, 48 h, class symbols
T1 construct: The degradation activity of compounds on AR-v7 in 22RV1 cells; host or cells: 22RV1 cells
T1 sequence (P10275 1-644 isoform P10275-3): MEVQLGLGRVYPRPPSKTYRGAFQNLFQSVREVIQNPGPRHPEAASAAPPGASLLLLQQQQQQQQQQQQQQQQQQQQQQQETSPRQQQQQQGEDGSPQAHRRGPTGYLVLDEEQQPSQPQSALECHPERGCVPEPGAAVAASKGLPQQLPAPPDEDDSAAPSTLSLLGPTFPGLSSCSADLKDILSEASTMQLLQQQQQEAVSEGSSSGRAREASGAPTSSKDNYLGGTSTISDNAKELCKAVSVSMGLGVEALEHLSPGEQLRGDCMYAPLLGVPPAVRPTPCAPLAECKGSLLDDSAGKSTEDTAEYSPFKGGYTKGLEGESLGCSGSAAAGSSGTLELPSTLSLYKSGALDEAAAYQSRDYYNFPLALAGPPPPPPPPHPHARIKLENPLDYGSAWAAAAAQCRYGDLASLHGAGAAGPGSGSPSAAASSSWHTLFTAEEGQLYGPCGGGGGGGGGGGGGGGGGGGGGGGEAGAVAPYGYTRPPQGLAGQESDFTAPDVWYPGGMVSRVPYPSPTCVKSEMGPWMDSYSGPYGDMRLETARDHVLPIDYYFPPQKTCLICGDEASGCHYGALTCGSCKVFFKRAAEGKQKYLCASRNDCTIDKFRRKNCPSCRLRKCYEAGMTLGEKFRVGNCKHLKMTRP

[2] = system: 22RV1 cells
[3] = Homo sapiens, 22Rv1, 144 h, read-out: 22RV1 IC50 (nM)
[4] = Homo sapiens, 22Rv1, 144 h, read-out: 22RV1 IC50 (nM), 22RV1 cells, 6 days culture, CCK-8, OD 450 nm
[5] = read-out: 22RV1 IC50, 22RV1 cells, 6 days culture, CCK-8, OD 450 nm

SMILES	DC50 [1] [nM]	IC50 [2, 3] [nM]	IC50 [2, 4] [nM]	IC50 [2, 5] [nM]
CC(=O)c1nccc(COc2ccc(C(C)(C)c3ccc(O[C@H]4C[C@@H](Nc5ccc6c(c5)C(=O)N(C5CCC(=O)NC5=O)C6=O)C4)cc3)cc2)n1 (stereo partly drawn) [Example 491]	< 10	4		
Cc1nc(-c2ncc(Oc3ccc(C4(c5ccc(O[C@H]6C[C@H](Nc7ccc8c(c7)C(=O)N(C7CCC(=O)NC7=O)C8=O)C6)cc5)CCCCC4)cc3)cn2)no1 (stereo partly drawn) [Example 339]	< 10		2	
CC(=O)c1ncc(Oc2ccc(C(C)c3ccc(O[C@H]4C[C@H](Nc5ccc6c(c5)C(=O)N(C5CCC(=O)NC5=O)C6=O)C4)cn3)cc2)cn1 (stereo partly drawn) [Example 220]	< 10		8	
CC(C)(c1ccc(OCCCCCCCOCCCOCCCNc2ccc3c(c2)C(=O)N(C2CCC(=O)NC2=O)C3=O)cc1)c1ccc(OCc2ccnc(N3CC4(COC4)C3)n2)cc1 (stereo not drawn) [Example 62, 5-((3-(3-((7-(4-(2-(4-((2-(2-oxa-6-azaspiro[3.3]heptan-6-yl)pyrimidin-4-yl)methoxy)phenyl)propan-2-yl)phenoxy)heptyl)oxy)propoxy)propyl)amino)-2-(2,6-dioxopiperidin-3-yl)isoindolin-1,3-dione]	1000 to 5000		1500	
COc1nccc(COc2ccc(C(C)(C)c3ccc(O[C@H]4C[C@H](Nc5ccc6c(c5)C(=O)N(C5CCC(=O)NC5=O)C6=O)C4)cc3)cc2)n1 (stereo partly drawn) [Example 449, 2-(2,6-dioxopiperidin-3-yl)-5-(((1r,3r)-3-(4-(2-(4-((2-methoxypyrimidin-4-yl)methoxy)phenyl)propan-2-yl)phenoxy)cyclobutyl)amino) isoindolin-1,3-dione]	11 to 100		10	
CC(C)(c1ccc(Oc2cc(F)cnc2-n2ccnn2)cc1)c1ccc(O[C@H]2C[C@H](Nc3ccc4c(c3)C(=O)N(C3CCC(=O)NC3=O)C4=O)C2)cc1 (stereo partly drawn) [Example 517]	< 10			16
CC(C)(c1ccc(OCc2ccnc(N3CC[C@H](O)C3)n2)cc1)c1ccc(O[C@H]2C[C@@H](Nc3ccc4c(c3)C(=O)N(C3CCC(=O)NC3=O)C4=O)C2)cc1 (stereo partly drawn) [Example 233]	< 10		16	
CC(C)(c1ccc(OCCCCCCCCOCCCCNc2ccc3c(c2)C(=O)N(C2CCC(=O)NC2=O)C3=O)cc1)c1ccc(OCc2ccnc(N3CC4(COC4)C3)n2)cc1 (stereo not drawn) [Example 61, 5-((4-((8-(4-(2-(4-((2-(2-oxa-6-azaspiro[3.3]heptan-6-yl)pyrimidin-4-yl)methoxy)phenyl)propan-2-yl)phenoxy)octyl)oxy)butyl)amino)-2-(2,6-dioxopiperidin-3-yl)isoindolin-1,3-dione]	1000 to 5000	4000		
CC(C)(c1ccc(OCc2ccnc(C#N)n2)cc1)c1ccc(O[C@H]2C[C@@H](Nc3ccc4c(c3)C(=O)N(C3CCC(=O)NC3=O)C4=O)C2)cc1 (stereo partly drawn) [Example 277, 4-((4-(2-(4-((1s,3s)-3-((2-(2,6-dioxopiperidin-3-yl)-1,3-dioxoisoindolin-5-yl)amino)cyclobutyloxy)phenyl)propan-2-yl)phenoxy)methyl)pyrimidin-2-carbonitrile]	< 10		5	
CC(=O)c1ncc(Oc2ccc(C(C)(C)c3ccc(OC4CC(Nc5ccc6c(c5)C(=O)N(C5CCC(=O)NC5=O)C6=O)C4)cn3)cc2)cn1 (stereo not drawn) [Example 222, 5-((1r,3r)-3-((6-(2-(4-((2-acetylpyrimidin-5-yl)oxy)phenyl)propan-2-yl)pyridin-3-yl)oxy)cyclobutyl)amino)-2-(2,6-dioxopyridin-3-yl)isoindolin-1,3-dione]	< 10			3
CC(C)(c1ccc(OCc2ccnc(-c3ncon3)n2)cc1)c1ccc(O[C@H]2C[C@H](Nc3ccc4c(c3)C(=O)N(C3CCC(=O)NC3=O)C4=O)C2)cc1 (stereo partly drawn) [Example 281]	< 10		5	
Cc1nnc(-c2ncc(Oc3ccc(C(C)(C)c4ccc(O[C@H]5C[C@H](Nc6ccc7c(c6)C(=O)N(C6CCC(=O)NC6=O)C7=O)C5)cc4)cc3)cn2)o1 (stereo partly drawn) [Example 473]	11 to 100		5	
CC(=O)c1ccc(Oc2ccc(C(C)(C)c3ccc(O[C@H]4C[C@@H](Nc5ccc6c(c5)C(=O)N(C5CCC(=O)NC5=O)C6=O)C4)cc3)cc2)cn1 (stereo partly drawn) [Example 525]	11 to 100		8	
CC(C)(c1ccc(Oc2nnc(N3CCOCC3)s2)cc1)c1ccc(O[C@H]2C[C@H](Nc3ccc4c(c3)C(=O)N(C3CCC(=O)NC3=O)C4=O)C2)cc1 (stereo partly drawn) [Example 513]	< 10		12	
CC(C)(O)c1cncc(Oc2ccc(C(C)(C)c3ccc(O[C@H]4C[C@H](Nc5ccc6c(c5)C(=O)N(C5CCC(=O)NC5=O)C6=O)C4)cc3)cc2)n1 (stereo partly drawn) [Example 162]	< 10		10	
CCC(CC)(c1ccc(Oc2cnc(C(C)=O)nc2)cc1)c1ccc(O[C@H]2C[C@H](Nc3ccc4c(c3)C(=O)N(C3CCC(=O)NC3=O)C4=O)C2)cc1 (stereo partly drawn) [Example 132]	< 10		5	
CC(=O)c1ccc(Oc2ccc(C3(c4ccc(O[C@H]5C[C@H](Nc6ccc7c(c6)C(=O)N(C6CCC(=O)NC6=O)C7=O)C5)cc4)CCOCC3)cc2)nn1 (stereo partly drawn) [Example 106]	< 10		0.3	
CC(C)(c1ccc(Oc2ncnc(N3CC4(COC4)C3)n2)cc1)c1ccc(O[C@H]2C[C@H](Nc3ccc4c(c3)C(=O)N(C3CCC(=O)NC3=O)C4=O)C2)cc1 (stereo partly drawn) [Example 160]	< 10		8	
CC(=O)c1ncc(Oc2ccc(C3(c4ccc(O[C@H]5C[C@H](Nc6ccc7c(c6)C(=O)N(C6CCC(=O)NC6=O)C7=O)C5)cc4)CCCC3)cc2)cn1 (stereo partly drawn) [Example 135]	< 10		2	
CC1CN(c2nccc(COc3ccc(C(C)(C)c4ccc(O[C@H]5C[C@H](Nc6ccc7c(c6)C(=O)N(C6CCC(=O)NC6=O)C7=O)C5)cc4)cc3)n2)CCN1C (stereo partly drawn) [Example 450, 5-(((1r,3r)-3-(4-(2-(4-((2-(3,4-dimethylpiperazin-1-yl)pyrimidin-4-yl)methoxy)phenyl)propan-2-yl)phenoxy)cyclobutyl)amino)-2-(2,6-dioxopiperidin-3-yl)isoindolin-1,3-dione]	11 to 100		8	
CN1CCN(C(=O)c2noc(COc3ccc(C(C)(C)c4ccc(OCCCNc5ccc6c(c5)C(=O)N(C5CCC(=O)NC5=O)C6=O)cc4)cc3)n2)CC1 (stereo not drawn) [Example 141]	11 to 100		85	
CCC(CC)(c1ccc(Oc2cnc(C(C)=O)cn2)cc1)c1ccc(O[C@H]2C[C@H](Nc3ccc4c(c3)C(=O)N(C3CCC(=O)NC3=O)C4=O)C2)cc1 (stereo partly drawn) [Example 294]	< 10		4.2	
CC(C)(c1ccc(OCc2ccnc(N3CC(O)C3)n2)cc1)c1ccc(O[C@H]2C[C@@H](Nc3ccc4c(c3)C(=O)N(C3CCC(=O)NC3=O)C4=O)C2)cc1 (stereo partly drawn) [Example 453]	< 10		6	
CC(O)c1ncc(Oc2ccc(C(C)c3ccc(O[C@H]4C[C@H](Nc5ccc6c(c5)C(=O)N(C5CCC(=O)NC5=O)C6=O)C4)cn3)cc2)cn1 (stereo partly drawn) [Example 219]	< 10		6	
CC(C)(c1ccc(OCCCNc2ccc3c(c2)C(=O)N(C2CCC(=O)NC2=O)C3=O)cc1)c1ccc(OCc2nc(CO)co2)cc1 (stereo not drawn) [Example 185, 2-(2,6-dioxopiperidin-3-yl)-5-((3-(4-(2-(4-((4-(hydroxylmethyl)oxazol-2-yl)methoxy)phenyl)propan-2-yl)phenoxy)propyl)amino)isoindolin-1,3-dione]	11 to 100		56	
CC(C)(c1ccc(Oc2cc(-n3nccn3)ncn2)cc1)c1ccc(O[C@H]2C[C@H](Nc3ccc4c(c3)C(=O)N(C3CCC(=O)NC3=O)C4=O)C2)cc1 (stereo partly drawn) [Example 578]	< 10		8	
CC1CN(c2nccc(COc3ccc(C(C)(C)c4ccc(OC5CC(Nc6ccc7c(c6)C(=O)N(C6CCC(=O)NC6=O)C7=O)C5)cc4)cc3)n2)CC(C)N1 (stereo not drawn) [Example 452, 5-((3-(4-(2-(4-((2-(3,5-dimethylpiperazin-1-yl)pyrimidin-4-yl)methoxy)phenyl)propan-2-yl)phenoxy)cyclobutyl)amino)-2-(2,6-dioxopiperidin-3-yl)isoindolin-1,3-dione]	11 to 100		8	
Cc1nc(-c2ncc(Oc3ccc(C4(c5ccc(O[C@H]6C[C@H](Nc7ccc8c(c7)C(=O)N(C7CCC(=O)NC7=O)C8=O)C6)cc5)CCCC4)cc3)cn2)no1 (stereo partly drawn) [Example 293]	< 10		2.5	
CC(C)(c1ccc(OCc2nc(N3CC4(COC4)C3)ncc2F)cc1)c1ccc(O[C@H]2C[C@H](Nc3ccc4c(c3)C(=O)N(C3CCC(=O)NC3=O)C4=O)C2)cc1 (stereo partly drawn) [Example 200]	< 10		12	
COc1nccc(COc2ccc(C(C)(C)c3ccc(OCCCNc4ccc5c(c4)C(=O)N(C4CCC(=O)NC4=O)C5=O)cc3)cc2)n1 (stereo not drawn) [Example 68, 2-(2,6-dioxopiperidin-3-yl)-5-((3-(4-(2-(4-((2-methoxypyrimidin-4-yl)methoxy)phenyl)propan-2-yl)phenoxy)propyl)amino)isoindolin-1,3-dione]	11 to 100		30	
